The test has as its system mouse inflammatory bowel disease model (DSS). In words: Efficacy in mouse inflammatory bowel disease model with 5-ASA control (Example 7). Format: in vivo. As to conditions: 50 mg/kg, compared with the other groups.

The structures appear in SMILES notation.

Text: As the symptoms of inflammatory bowel disease were aggravated, systemic inflammations may be caused through the release of inflammatory cytokines in the blood, and therefore, an effective anti-inflammatory medicine was thought to inhibit the release of inflammatory substances in the spleen, liver, kidney, or the like to prevent the inflammations, and thus this was investigated.

In the case of `Nc1ccc(O)c(C(=O)O)c1` [5-ASA, 5-aminosalicylic acid], the spleen weight result was “spleen weight was high”.

For the origin of these results see patent publication US20230355513A1, “PARTICLES INCLUDING CHITOSAN-BILIRUBIN CONJUGATE, AND ORAL PHARMACEUTICAL COMPOSITION INCLUDING SAME” (KOREA ADVANCED INSTITUTE OF SCIENCE AND TECHNOLOGY, priority 2021, published 2023).
